Test results: publication PMC8963254, “Effects of Lysine N-ζ-Methylation in Ultrashort Tetrabasic Lipopeptides (UTBLPs) on the Potentiation of Rifampicin, Novobiocin, and Niclosamide in Gram-Negative Bacteria” (Antibiotics, 2022)
≈ marks a conversion by molar mass, not a printed value. Where two headings read alike, the source gives them in different places. Non-standard residues stand in square brackets, D forms with d. Residues, ends and D or L forms follow the SMILES beside them. *: point of attachment. Lys(Me) = CNCCCC[C@H](N)C(=O)O; Octanoyl = CCCCCCCC(=O)*

Experiments:
E. faecalis ATCC 29212 = format: cell-based, Enterococcus faecalis; details: ATCC 29212, 18 h
In short: (§1)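 MIC was determined by broth microdilution following CLSI guidelines. Serially varied compound concentrations were incubated with bacterial inoculum at 5 × 10^5 CFU/mL (final) for 18 h at 37 °C. Growth was scored as turbidity by absorbance at 590 nm.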

[1] = system: P. aeruginosa PA262-101856; assay: microbe, parasite or virus in culture; format: cell-based, Pseudomonas aeruginosa; details: PA262-101856, 18 h
In short: as §1

[2] = system: P. aeruginosa PA259-96196; assay: microbe, parasite or virus in culture; format: cell-based, Pseudomonas aeruginosa; details: PA259-96196, 18 h
In short: as §1

A. baumannii AB027 = assay: microbe, parasite or virus in culture; format: cell-based, Acinetobacter baumannii; details: AB027, 18 h
In short: as §1

A. baumannii AB92247 = assay: microbe, parasite or virus in culture; format: cell-based, Acinetobacter baumannii; details: AB92247, 18 h
In short: as §1

E. cloacae 118564 [3] = assay: microbe, parasite or virus in culture; format: cell-based, Enterobacter cloacae; details: 118564, 18 h
In short: as §1

A. baumannii ATCC 17978 = format: cell-based, Acinetobacter baumannii; details: for MICUTBLP: UTBLP alone
In short: (§2)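 Checkerboard synergy assay: antibiotic and OMP combined at varying concentrations with 5 × 10^5 CFU/mL inoculum (final), 37 °C, 18 h; growth read as turbidity at 590 nm. FICI = sum of FICs (MIC in combination / MIC alone); ≤0.5 synergistic, 0.5–4 additive, >4 antagonistic.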

P. aeruginosa PAO1 [4] = format: cell-based, Pseudomonas aeruginosa; details: for MICUTBLP: UTBLP alone
In short: as §2

[5] = system: P. aeruginosa PA262-101856; format: cell-based, Pseudomonas aeruginosa; details: for MICUTBLP: UTBLP alone
In short: as §2

[6] = system: P. aeruginosa PA259-96196; format: cell-based, Pseudomonas aeruginosa; details: for MICUTBLP: UTBLP alone
In short: as §2

S. aureus ATCC 29213 = format: cell-based, Staphylococcus aureus
In short: as §2

MRSA ATCC 33592 = format: cell-based, Staphylococcus aureus
In short: as §2

P. aeruginosa PAO1 [7] = format: cell-based, Pseudomonas aeruginosa; details: PAO1, 18 h
In short: as §1

MSSE 81388 = format: cell-based, Staphylococcus epidermidis
In short: as §2

MRSE 61589 = format: cell-based, Staphylococcus epidermidis
In short: as §2

E. cloacae 118564 [8] = format: cell-based, Enterobacter cloacae; details: for MICUTBLP: UTBLP alone
In short: as §2

E. faecium ATCC 27270 = format: cell-based, Enterococcus faecium; details: ATCC 27270, 18 h
In short: as §1

K. pneumoniae 113250 = format: cell-based, Klebsiella pneumoniae; details: for MICUTBLP: UTBLP alone
In short: as §2

[9] = UTBLP in combination with chloramphenicol
[10] = UTBLP in combination with niclosamide
[11] = UTBLP in combination with novobiocin
[12] = UTBLP in combination with rifampicin
[13] = chloramphenicol in combination with the UTBLP
[14] = niclosamide in combination with the UTBLP
[15] = novobiocin in combination with the UTBLP
[16] = rifampicin in combination with the UTBLP
[17] = UTBLP alone, plate with chloramphenicol

CCCCCCCC(=O)NCCCC[C@H](NC(=O)CCCCCCC)C(=O)N[C@@H](CCCCNC)C(=O)N[C@@H](CCCCNC)C(=O)N[C@@H](CCCCNC)C(=O)N[C@@H](CCCCNC)C(N)=O [UTBLP 6] (Octanoyl-K(Octanoyl)[Lys(Me)][Lys(Me)][Lys(Me)][Lys(Me)]-NH2)
MIC (E. faecalis ATCC 29212): 32 µg/mL (≈ 33.1 µM)
MIC [1]: > 128 µg/mL
MIC [2]: > 128 µg/mL
MIC (A. baumannii AB027): > 128 µg/mL
MIC (A. baumannii AB92247): 32 µg/mL (≈ 33.1 µM)
MIC (E. cloacae 118564 [3]): > 128 µg/mL
Interpretation (A. baumannii ATCC 17978; UTBLP + chloramphenicol): Additive (0.5 < x ≤ 4 is additive)
Interpretation (A. baumannii ATCC 17978; UTBLP + niclosamide): Synergy (FICI ≤ 0.5 is synergistic)
Interpretation (A. baumannii ATCC 17978; UTBLP + novobiocin): Synergy (FICI ≤ 0.5 is synergistic)
Interpretation (A. baumannii ATCC 17978; UTBLP + rifampicin): Synergy (FICI ≤ 0.5 is synergistic)
MICUTBLP (A. baumannii ATCC 17978; plate with chloramphenicol): 64 µg/mL
MICUTBLP (A. baumannii ATCC 17978; plate with niclosamide): 64 µg/mL
MICUTBLP (A. baumannii ATCC 17978; plate with novobiocin): 64 µg/mL
MICUTBLP (A. baumannii ATCC 17978; plate with rifampicin): 64 µg/mL
MICUTBLP [MICcombo] (A. baumannii ATCC 17978; [9]): 8 µg/mL
MICUTBLP [MICcombo] (A. baumannii ATCC 17978; [10]): 1 µg/mL
MICUTBLP [MICcombo] (A. baumannii ATCC 17978; [11]): 4 µg/mL
MICUTBLP [MICcombo] (A. baumannii ATCC 17978; [12]): 2 µg/mL
MICantibiotic [MICcombo] (A. baumannii ATCC 17978; [13]): 32 µg/mL
MICantibiotic [MICcombo] (A. baumannii ATCC 17978; [14]): 4 µg/mL
MICantibiotic [MICcombo] (A. baumannii ATCC 17978; [15]): 0.25 µg/mL
MICantibiotic [MICcombo] (A. baumannii ATCC 17978; [16]): 0.031 µg/mL
Interpretation (P. aeruginosa PAO1 [4]; UTBLP + chloramphenicol): Synergy (FICI ≤ 0.5 is synergistic)
Interpretation (P. aeruginosa PAO1 [4]; UTBLP + niclosamide): Synergy (FICI ≤ 0.5 is synergistic)
Interpretation (P. aeruginosa PAO1 [4]; UTBLP + novobiocin): Synergy (FICI ≤ 0.5 is synergistic)
Interpretation (P. aeruginosa PAO1 [4]; UTBLP + rifampicin): Synergy (FICI ≤ 0.5 is synergistic)
MICUTBLP (P. aeruginosa PAO1 [4]; plate with chloramphenicol): > 128 µg/mL
MICUTBLP (P. aeruginosa PAO1 [4]; plate with niclosamide): > 128 µg/mL
MICUTBLP (P. aeruginosa PAO1 [4]; plate with novobiocin): > 128 µg/mL
MICUTBLP (P. aeruginosa PAO1 [4]; plate with rifampicin): > 128 µg/mL
MICUTBLP [MICcombo] (P. aeruginosa PAO1 [4]; [9]): 16 µg/mL
MICUTBLP [MICcombo] (P. aeruginosa PAO1 [4]; [10]): 16 µg/mL
MICUTBLP [MICcombo] (P. aeruginosa PAO1 [4]; [11]): 16 µg/mL
MICUTBLP [MICcombo] (P. aeruginosa PAO1 [4]; [12]): 16 µg/mL
MICantibiotic [MICcombo] (P. aeruginosa PAO1 [4]; [13]): 2 µg/mL
MICantibiotic [MICcombo] (P. aeruginosa PAO1 [4]; [14]): 2 µg/mL
MICantibiotic [MICcombo] (P. aeruginosa PAO1 [4]; [15]): 32 µg/mL
MICantibiotic [MICcombo] (P. aeruginosa PAO1 [4]; [16]): 1 µg/mL
Interpretation ([5]; UTBLP + novobiocin): Synergy (FICI ≤ 0.5 is synergistic)
Interpretation ([5]; UTBLP + rifampicin): Additive (0.5 < x ≤ 4 is additive)
MICUTBLP ([5]; plate with novobiocin): > 128 µg/mL
MICUTBLP ([5]; plate with rifampicin): > 128 µg/mL
MICUTBLP [MICcombo] [5, 11]: 16 µg/mL
MICUTBLP [MICcombo] [5, 12]: 16 µg/mL
MICantibiotic [MICcombo] [5, 15]: 128 µg/mL
MICantibiotic [MICcombo] [5, 16]: 256 µg/mL
Interpretation ([6]; UTBLP + novobiocin): Synergy (FICI ≤ 0.5 is synergistic)
Interpretation ([6]; UTBLP + rifampicin): Synergy (FICI ≤ 0.5 is synergistic)
MICUTBLP ([6]; plate with novobiocin): > 128 µg/mL
MICUTBLP ([6]; plate with rifampicin): > 128 µg/mL
MICUTBLP [MICcombo] [6, 11]: 16 µg/mL
MICUTBLP [MICcombo] [6, 12]: 16 µg/mL
MICantibiotic [MICcombo] [6, 15]: 128 µg/mL
MICantibiotic [MICcombo] [6, 16]: 2 µg/mL
MICUTBLP (S. aureus ATCC 29213; [17]): 128 µg/mL
MICUTBLP [MICcombo] (S. aureus ATCC 29213; [9]): 16 µg/mL
MICchloramphenicol [MICcombo] (S. aureus ATCC 29213; [13]): 4 µg/mL
Interpretation (MRSA ATCC 33592; UTBLP + chloramphenicol): Additive (0.5 < x ≤ 4 is additive)
MICUTBLP (MRSA ATCC 33592; [17]): > 128 µg/mL
MICUTBLP [MICcombo] (MRSA ATCC 33592; [9]): 0.25 µg/mL
MICchloramphenicol [MICcombo] (MRSA ATCC 33592; [13]): 64 µg/mL
MIC (P. aeruginosa PAO1 [7]): >128 µg/mL
Interpretation (MSSE 81388; UTBLP + chloramphenicol): Additive (0.5 < x ≤ 4 is additive)
MICUTBLP (MSSE 81388; [17]): 16 µg/mL
MICUTBLP [MICcombo] (MSSE 81388; [9]): 0.25 µg/mL
MICchloramphenicol [MICcombo] (MSSE 81388; [13]): 4 µg/mL
Interpretation (MRSE 61589; UTBLP + chloramphenicol): Additive (0.5 < x ≤ 4 is additive)
MICUTBLP (MRSE 61589; [17]): 16 µg/mL
MICUTBLP [MICcombo] (MRSE 61589; [9]): 8 µg/mL
MICchloramphenicol [MICcombo] (MRSE 61589; [13]): 4 µg/mL
Interpretation (E. cloacae 118564 [8]; UTBLP + novobiocin): Synergy (FICI ≤ 0.5 is synergistic)
Interpretation (E. cloacae 118564 [8]; UTBLP + rifampicin): Synergy (FICI ≤ 0.5 is synergistic)
MICUTBLP (E. cloacae 118564 [8]; plate with novobiocin): > 128 µg/mL
MICUTBLP (E. cloacae 118564 [8]; plate with rifampicin): > 128 µg/mL
MICUTBLP [MICcombo] (E. cloacae 118564 [8]; [11]): 16 µg/mL
MICUTBLP [MICcombo] (E. cloacae 118564 [8]; [12]): 16 µg/mL
MICantibiotic [MICcombo] (E. cloacae 118564 [8]; [15]): 1 µg/mL
MICantibiotic [MICcombo] (E. cloacae 118564 [8]; [16]): 0.5 µg/mL
MIC (E. faecium ATCC 27270): 64 µg/mL (≈ 66.2 µM)
Interpretation (K. pneumoniae 113250; UTBLP + novobiocin): Synergy (FICI ≤ 0.5 is synergistic)
Interpretation (K. pneumoniae 113250; UTBLP + rifampicin): Synergy (FICI ≤ 0.5 is synergistic)
MICUTBLP (K. pneumoniae 113250; plate with novobiocin): > 128 µg/mL
MICUTBLP (K. pneumoniae 113250; plate with rifampicin): > 128 µg/mL
MICUTBLP [MICcombo] (K. pneumoniae 113250; [11]): 16 µg/mL
MICUTBLP [MICcombo] (K. pneumoniae 113250; [12]): 16 µg/mL
MICantibiotic [MICcombo] (K. pneumoniae 113250; [15]): 2 µg/mL
MICantibiotic [MICcombo] (K. pneumoniae 113250; [16]): 1 µg/mL
